# Tested on: subjects with idiopathic hypersomnia (IH)
# Assay: Part 6 POC IH: treatment-emergent adverse events, single doses, crossover
# Details: N = 8
# Procedure: Part 6 consisted of a 4-way, 4-period crossover study design in approximately 8 subjects (2 subjects per sequence; minimum of 4 subjects with 1 subject per sequence). […] Treatments were administered under fasted state.
# Subjects were randomized to 1 of 4 sequences. […] No food was given for at least 3 hours after dose administration (i.e., fast can be broken after the 3-hour PK time point is collected). Water was allowed ad libitum except for 1 hour before and 1 hour after study drug administration. Safety assessments including AEs, safety ECGs, vital signs, and clinical laboratory tests were conducted, and plasma PK samples were collected.
# Adverse events (AEs) and serious adverse events (SAEs) were monitored continuously until the completion of the study.
# Eight subjects with IH were dosed in Part 6 (POC in IH) in a randomized 4-sequence 4-period cross-over design.
smiles,measurement,setting,value
"CS(=O)(=O)N[C@H]1CCCN2C(=O)COc3ccccc3C3CCC(CC3)OCC12 (stereo partly drawn) [Compound A, N-[(4S,4aR,7α,10α)-1,2,3,4,4a,5,7,8,9,10,16,17-dodecahydro-17-oxo-7,10-ethanopyrido[1,2-d][1,7,4]benzodioxaazacyclotridecin-4-yl]methanesulfonamide]",AE Leading to Study Drug Discontinuation,5 mg single dose,0 n (%)
same,Any SAEs,5 mg single dose,0 n (%)
same,Any TEAE,5 mg single dose,6 (75.0) n (%)
same,Death,5 mg single dose,0 n (%)
same,Drug Related TEAE by Preferred Term: Cold sweat,5 mg single dose,0 n (%)
same,Drug Related TEAE by Preferred Term: Dizziness,5 mg single dose,0 n (%)
same,Drug Related TEAE by Preferred Term: Dysuria,5 mg single dose,0 n (%)
same,Drug Related TEAE by Preferred Term: Feeling jittery,5 mg single dose,0 n (%)
same,Drug Related TEAE by Preferred Term: Insomnia,5 mg single dose,0 n (%)
same,Drug Related TEAE by Preferred Term: Micturition urgency,5 mg single dose,1 (12.5) n (%)
same,Drug Related TEAE by Preferred Term: Middle insomnia,5 mg single dose,1 (12.5) n (%)
same,Drug Related TEAE by Preferred Term: Palpitations,5 mg single dose,0 n (%)
same,Drug Related TEAE by Preferred Term: Pollakiuria,5 mg single dose,2 (25.0) n (%)
same,Drug Related TEAE by Preferred Term: Supraventricular extrasystoles,5 mg single dose,0 n (%)
same,Drug Related TEAE by Preferred Term: Tachycardia,5 mg single dose,0 n (%)
same,Drug Related TEAE by Preferred Term: Visual impairment,5 mg single dose,0 n (%)
same,Subjects with at least one TEAE,5 mg single dose,6 (75.0) n (%)
same,Subjects with at least one treatment-related TEAE,5 mg single dose,2 (25.0) n (%)
same,TEAE by Highest Relationship: Not Related,5 mg single dose,4 (50.0) n (%)
same,TEAE by Highest Relationship: Related,5 mg single dose,2 (25.0) n (%)
same,TEAE by Highest Severity: Mild,5 mg single dose,6 (75.0) n (%)
same,TEAE by Highest Severity: Moderate,5 mg single dose,0 n (%)
same,TEAE by Highest Severity: Severe,5 mg single dose,0 n (%)
same,TEAE by Preferred Term: Blood creatine phosphokinase increased,5 mg single dose,0 n (%)
same,TEAE by Preferred Term: Blood creatinine increased,5 mg single dose,0 n (%)
same,TEAE by Preferred Term: Cold sweat,5 mg single dose,0 n (%)
same,TEAE by Preferred Term: Dermatitis contact,5 mg single dose,0 n (%)
same,TEAE by Preferred Term: Dizziness,5 mg single dose,2 (25.0) n (%)
same,TEAE by Preferred Term: Dysuria,5 mg single dose,0 n (%)
same,TEAE by Preferred Term: Epistaxis,5 mg single dose,0 n (%)
same,TEAE by Preferred Term: Feeling jittery,5 mg single dose,0 n (%)
same,TEAE by Preferred Term: Headache,5 mg single dose,1 (12.5) n (%)
same,TEAE by Preferred Term: Insomnia,5 mg single dose,0 n (%)
same,TEAE by Preferred Term: Micturition urgency,5 mg single dose,1 (12.5) n (%)
same,TEAE by Preferred Term: Middle insomnia,5 mg single dose,1 (12.5) n (%)
same,TEAE by Preferred Term: Nausea,5 mg single dose,1 (12.5) n (%)
same,TEAE by Preferred Term: Neck pain,5 mg single dose,1 (12.5) n (%)
same,TEAE by Preferred Term: Palpitations,5 mg single dose,0 n (%)
same,TEAE by Preferred Term: Phlebitis,5 mg single dose,0 n (%)
same,TEAE by Preferred Term: Pollakiuria,5 mg single dose,2 (25.0) n (%)
same,TEAE by Preferred Term: Presyncope,5 mg single dose,0 n (%)
same,TEAE by Preferred Term: Skin irritation,5 mg single dose,1 (12.5) n (%)
same,TEAE by Preferred Term: Steatorrhoea,5 mg single dose,0 n (%)
same,TEAE by Preferred Term: Supraventricular extrasystoles,5 mg single dose,0 n (%)
same,TEAE by Preferred Term: Tachycardia,5 mg single dose,0 n (%)
same,TEAE by Preferred Term: Urinary tract infection,5 mg single dose,1 (12.5) n (%)
same,TEAE by Preferred Term: Vessel puncture site bruise,5 mg single dose,2 (25.0) n (%)
same,TEAE by Preferred Term: Vessel puncture site pain,5 mg single dose,0 n (%)
same,TEAE by Preferred Term: Visual impairment,5 mg single dose,0 n (%)
same,TEAE by Preferred Term: Vomiting,5 mg single dose,0 n (%)
same,AE Leading to Study Drug Discontinuation,12 mg single dose,0 n (%)
same,Any SAEs,12 mg single dose,0 n (%)
same,Any TEAE,12 mg single dose,5 (62.5) n (%)
same,Death,12 mg single dose,0 n (%)
same,Drug Related TEAE by Preferred Term: Cold sweat,12 mg single dose,0 n (%)
same,Drug Related TEAE by Preferred Term: Dizziness,12 mg single dose,0 n (%)
same,Drug Related TEAE by Preferred Term: Dysuria,12 mg single dose,1 (12.5) n (%)
same,Drug Related TEAE by Preferred Term: Feeling jittery,12 mg single dose,0 n (%)
same,Drug Related TEAE by Preferred Term: Insomnia,12 mg single dose,0 n (%)
same,Drug Related TEAE by Preferred Term: Micturition urgency,12 mg single dose,0 n (%)
same,Drug Related TEAE by Preferred Term: Middle insomnia,12 mg single dose,1 (12.5) n (%)
same,Drug Related TEAE by Preferred Term: Palpitations,12 mg single dose,0 n (%)
same,Drug Related TEAE by Preferred Term: Pollakiuria,12 mg single dose,2 (25.0) n (%)
same,Drug Related TEAE by Preferred Term: Supraventricular extrasystoles,12 mg single dose,0 n (%)
same,Drug Related TEAE by Preferred Term: Tachycardia,12 mg single dose,0 n (%)
same,Drug Related TEAE by Preferred Term: Visual impairment,12 mg single dose,0 n (%)
same,Subjects with at least one TEAE,12 mg single dose,5 (62.5) n (%)
same,Subjects with at least one treatment-related TEAE,12 mg single dose,3 (37.5) n (%)
same,TEAE by Highest Relationship: Not Related,12 mg single dose,2 (25.0) n (%)
same,TEAE by Highest Relationship: Related,12 mg single dose,3 (37.5) n (%)
same,TEAE by Highest Severity: Mild,12 mg single dose,5 (62.5) n (%)
same,TEAE by Highest Severity: Moderate,12 mg single dose,0 n (%)
same,TEAE by Highest Severity: Severe,12 mg single dose,0 n (%)
same,TEAE by Preferred Term: Blood creatine phosphokinase increased,12 mg single dose,1 (12.5) n (%)
same,TEAE by Preferred Term: Blood creatinine increased,12 mg single dose,1 (12.5) n (%)
same,TEAE by Preferred Term: Cold sweat,12 mg single dose,0 n (%)
same,TEAE by Preferred Term: Dermatitis contact,12 mg single dose,0 n (%)
same,TEAE by Preferred Term: Dizziness,12 mg single dose,0 n (%)
same,TEAE by Preferred Term: Dysuria,12 mg single dose,1 (12.5) n (%)
same,TEAE by Preferred Term: Epistaxis,12 mg single dose,0 n (%)
same,TEAE by Preferred Term: Feeling jittery,12 mg single dose,0 n (%)
same,TEAE by Preferred Term: Headache,12 mg single dose,1 (12.5) n (%)
same,TEAE by Preferred Term: Insomnia,12 mg single dose,0 n (%)
same,TEAE by Preferred Term: Micturition urgency,12 mg single dose,0 n (%)
same,TEAE by Preferred Term: Middle insomnia,12 mg single dose,1 (12.5) n (%)
same,TEAE by Preferred Term: Nausea,12 mg single dose,1 (12.5) n (%)
same,TEAE by Preferred Term: Neck pain,12 mg single dose,0 n (%)
same,TEAE by Preferred Term: Palpitations,12 mg single dose,0 n (%)
same,TEAE by Preferred Term: Phlebitis,12 mg single dose,1 (12.5) n (%)
same,TEAE by Preferred Term: Pollakiuria,12 mg single dose,2 (25.0) n (%)
same,TEAE by Preferred Term: Presyncope,12 mg single dose,1 (12.5) n (%)
same,TEAE by Preferred Term: Skin irritation,12 mg single dose,0 n (%)
same,TEAE by Preferred Term: Steatorrhoea,12 mg single dose,1 (12.5) n (%)
same,TEAE by Preferred Term: Supraventricular extrasystoles,12 mg single dose,0 n (%)
same,TEAE by Preferred Term: Tachycardia,12 mg single dose,0 n (%)
same,TEAE by Preferred Term: Urinary tract infection,12 mg single dose,0 n (%)
same,TEAE by Preferred Term: Vessel puncture site bruise,12 mg single dose,0 n (%)
same,TEAE by Preferred Term: Vessel puncture site pain,12 mg single dose,0 n (%)
same,TEAE by Preferred Term: Visual impairment,12 mg single dose,0 n (%)
same,TEAE by Preferred Term: Vomiting,12 mg single dose,0 n (%)
same,AE Leading to Study Drug Discontinuation,25 mg single dose,0 n (%)

# — patent US20250186405A1, “Compound For Use In Treating Narcolepsy” (Alkermes, Inc., priority 2023, published 2025)
